# According to PubChem BioAssay (NCI):
#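 Assay format: 96-well plates, 48-hour exposure. GI50: concentration for 50% inhibition of growth. The concentration for full growth arrest is given as TGI.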
# Experiments:
# Assay in all cases: growth of human tumour cells (NCI), 48 h
# SK-OV-3 ovarian = tested on: SK-OV-3 ovarian
# ACHN renal = tested on: ACHN renal
# KM12 colon = tested on: KM12 colon
# OVCAR-5 ovarian = tested on: OVCAR-5 ovarian
# SK-MEL-2 melanoma = tested on: SK-MEL-2 melanoma
# T-47D breast = tested on: T-47D breast
# HL-60(TB) leukemia = tested on: HL-60(TB) leukemia
# DU-145 prostate = tested on: DU-145 prostate
# CAKI-1 renal = tested on: CAKI-1 renal
# SNB-75 CNS = tested on: SNB-75 CNS
# M14 melanoma = tested on: M14 melanoma
# RXF 393 renal = tested on: RXF 393 renal
# A549 NSCLC = tested on: A549 NSCLC
# NCI-H522 lung = tested on: NCI-H522 lung
# SNB-19 CNS = tested on: SNB-19 CNS
# SK-MEL-5 melanoma = tested on: SK-MEL-5 melanoma
# SW-620 colon = tested on: SW-620 colon
# HT29 colon = tested on: HT29 colon
# A498 renal = tested on: A498 renal
# OVCAR-4 ovarian = tested on: OVCAR-4 ovarian
# UO-31 renal = tested on: UO-31 renal
# CCRF-CEM leukemia = tested on: CCRF-CEM leukemia
# IGROV1 ovarian = tested on: IGROV1 ovarian
# HCT-116 colon = tested on: HCT-116 colon
# MALME-3M melanoma = tested on: MALME-3M melanoma
# SN12C renal = tested on: SN12C renal
# HOP-62 NSCLC = tested on: HOP-62 NSCLC
# SR leukemia = tested on: SR leukemia
# SF-295 CNS = tested on: SF-295 CNS
# OVCAR-3 ovarian = tested on: OVCAR-3 ovarian
# TK-10 renal = tested on: TK-10 renal
# MDA-MB-231 breast = tested on: MDA-MB-231 breast
# SK-MEL-28 melanoma = tested on: SK-MEL-28 melanoma
# OVCAR-8 ovarian = tested on: OVCAR-8 ovarian
# LOX IMVI melanoma = tested on: LOX IMVI melanoma
# NCI-H226 lung = tested on: NCI-H226 lung
# EKVX NSCLC = tested on: EKVX NSCLC
# U251 CNS = tested on: U251 CNS
# NCI-H460 lung = tested on: NCI-H460 lung
# COLO 205 colon = tested on: COLO 205 colon
# NCI-H23 lung = tested on: NCI-H23 lung
# SF-268 CNS = tested on: SF-268 CNS
# MDA-MB-435 = tested on: MDA-MB-435
# MCF7 breast = tested on: MCF7 breast
# RPMI-8226 leukemia = tested on: RPMI-8226 leukemia
# UACC-257 melanoma = tested on: UACC-257 melanoma
# HCT-15 colon = tested on: HCT-15 colon
# 786-0 renal = tested on: 786-0 renal
# HOP-92 NSCLC = tested on: HOP-92 NSCLC
# PC-3 prostate = tested on: PC-3 prostate
# HCC-2998 colon = tested on: HCC-2998 colon
structure (smiles),measurement,setting,value
COc1ccc(-c2ccc(-c3ccc(C(=N)N)cc3)s2)cc1Cl,GI50,SK-OV-3 ovarian,1980 nM
same,TGI,SK-OV-3 ovarian,4460 nM
same,GI50,ACHN renal,1620 nM
same,TGI,ACHN renal,2970 nM
same,GI50,KM12 colon,1750 nM
same,TGI,KM12 colon,3130 nM
same,GI50,OVCAR-5 ovarian,1550 nM
same,TGI,OVCAR-5 ovarian,2880 nM
same,GI50,SK-MEL-2 melanoma,2050 nM
same,TGI,SK-MEL-2 melanoma,4200 nM
same,GI50,T-47D breast,1850 nM
same,TGI,T-47D breast,4330 nM
same,GI50,HL-60(TB) leukemia,1910 nM
same,TGI,HL-60(TB) leukemia,4050 nM
same,GI50,DU-145 prostate,1700 nM
same,TGI,DU-145 prostate,3060 nM
CCOC(=O)Nc1cc2c(c(N)n1)N=C(c1ccccc1)CN2,GI50,SK-OV-3 ovarian,20.7 nM
same,TGI,SK-OV-3 ovarian,17500 nM
same,TGI,CAKI-1 renal,27700 nM
same,TGI,SNB-75 CNS,31000 nM
same,GI50,M14 melanoma,< 0.1 nM
same,TGI,M14 melanoma,> 49000 nM
same,TGI,RXF 393 renal,29200 nM
same,GI50,ACHN renal,< 0.1 nM
same,TGI,ACHN renal,21600 nM
same,GI50,KM12 colon,< 0.1 nM
same,TGI,KM12 colon,49000 nM
same,GI50,A549 NSCLC,< 0.1 nM
same,TGI,A549 NSCLC,18100 nM
same,GI50,NCI-H522 lung,< 0.1 nM
same,TGI,NCI-H522 lung,< 0.1 nM
same,GI50,SNB-19 CNS,< 0.1 nM
same,TGI,SNB-19 CNS,> 59500 nM
same,GI50,SK-MEL-5 melanoma,< 0.1 nM
same,TGI,SK-MEL-5 melanoma,< 0.1 nM
same,GI50,SW-620 colon,< 0.1 nM
same,TGI,SW-620 colon,> 53000 nM
same,GI50,HT29 colon,< 0.1 nM
same,TGI,A498 renal,22200 nM
same,TGI,OVCAR-4 ovarian,> 100000 nM
same,GI50,UO-31 renal,107 nM
same,GI50,CCRF-CEM leukemia,< 0.1 nM
same,TGI,OVCAR-5 ovarian,27700 nM
same,GI50,IGROV1 ovarian,< 0.1 nM
same,GI50,HCT-116 colon,< 0.1 nM
same,GI50,MALME-3M melanoma,< 0.1 nM
same,TGI,MALME-3M melanoma,50800 nM
same,TGI,SN12C renal,37800 nM
same,TGI,HOP-62 NSCLC,18500 nM
same,TGI,SR leukemia,> 100000 nM
same,GI50,SF-295 CNS,< 0.1 nM
same,TGI,SF-295 CNS,13500 nM
same,GI50,OVCAR-3 ovarian,< 0.1 nM
same,TGI,OVCAR-3 ovarian,< 0.1 nM
same,TGI,TK-10 renal,> 60700 nM
same,GI50,MDA-MB-231 breast,< 0.1 nM
same,TGI,MDA-MB-231 breast,4.63 nM
same,TGI,SK-MEL-28 melanoma,39900 nM
same,TGI,OVCAR-8 ovarian,> 100000 nM
same,GI50,LOX IMVI melanoma,< 0.1 nM
same,TGI,LOX IMVI melanoma,32900 nM
same,GI50,NCI-H226 lung,0.221 nM
same,GI50,EKVX NSCLC,< 0.1 nM
same,TGI,EKVX NSCLC,46600 nM
same,TGI,T-47D breast,> 90500 nM
same,TGI,U251 CNS,1420 nM
same,GI50,NCI-H460 lung,< 0.1 nM
same,TGI,NCI-H460 lung,485 nM
same,GI50,COLO 205 colon,< 0.1 nM
same,TGI,COLO 205 colon,255 nM
same,GI50,NCI-H23 lung,< 0.1 nM
same,GI50,SF-268 CNS,< 0.1 nM
same,TGI,SF-268 CNS,34800 nM
same,GI50,MDA-MB-435,< 0.1 nM
same,TGI,MDA-MB-435,< 0.1 nM
same,GI50,MCF7 breast,23.2 nM
same,TGI,MCF7 breast,20500 nM
same,GI50,RPMI-8226 leukemia,< 0.1 nM
same,TGI,UACC-257 melanoma,50400 nM
same,GI50,HCT-15 colon,< 0.1 nM
same,GI50,DU-145 prostate,< 0.1 nM
same,GI50,786-0 renal,< 0.1 nM
same,TGI,786-0 renal,25900 nM
same,GI50,HOP-92 NSCLC,< 0.1 nM
same,TGI,HOP-92 NSCLC,34800 nM
same,GI50,PC-3 prostate,< 0.1 nM
same,TGI,PC-3 prostate,< 0.1 nM
same,TGI,HCC-2998 colon,44.5 nM
